Assay results reported in patent US12122750B2, “AT2R antagonists and uses thereof” (Eli Lilly and Company, priority 2022, dated 2024).

Target: recombinant human angiotensin-II receptor subtype 2 (hAT2R) (Homo sapiens (Human), UniProt P50052)
Experiment: Competitive radioligand binding assay (SPA), hAT2R HEK293 membranes
Details: [125I]-Tyr4-Angiotensin-II, read-out: AT2R Ki
Method: Compound Solubilization Test and reference compounds were received as dry powder reagents, weighed, and solubilized in 100% DMSO to generate a working stock concentration of 10 mM. Membrane Preparation Protocol (hAT2R HEK293 and rAT2R HEK293) hAT2R membranes were prepared from human embryonic kidney (HEK293) cells which were stably transfected with recombinant human angiotensin-II receptor subtype 2 (hAT2R). Cells from the stable cell lines were expanded in tissue culture flasks to generate a large population of cells; cell pellet (>1 gm), and these cell pellets were stored frozen prior to initiating this membrane isolation procedure for each receptor isoform. Frozen cell pellets were thawed in ice-cold homogenization/resuspension buffer (50 mM Tris-HCl, pH 7.5) containing one Complete© protease inhibitor tablet with EDTA (Roche Diagnostics) per 50 mL buffer, and cell pellet was resuspended at a ratio of 10 mL homogenization buffer to gram of starting cell pellet. Cell suspension was homogenized with an overhead motor-driven Teflon-glass homogenizer using 15 to 20 strokes, followed by centrifugation at 1100×g for 10 minutes at 4° C. The supernatant was saved on ice, pellets were homogenized as before, and centrifuged at 1100×g for 10 minutes at 4° C. Both supernatants were combined and subsequently centrifuged at 35,000×g for 60 minutes at 4° C. The final centrifugation pellet (pellet 2) containing the isolated membranes was resuspended in buffer (4 to 5 mL/g of starting cell paste) containing protease inhibitors and quick frozen in liquid nitrogen prior to storage at -80° C. Protein concentration was determined using a BCA kit (ThermoScientific, Inc.) with bovine serum albumin (BSA) as standard. […] The assays were performed with a scintillation proximity assay (SPA) method using polyvinyltoluene (PVT) wheat germ agglutinin-coupled SPA beads (Perkin Elmer Cat. #RPNQ0001). Assay buffer containing BSA (50 mM Tris-HCl, pH 7.5, 150 mM NaCl, 0.1% w/v fatty-acid free BSA) was used for preparing radioligand, membrane and SPA bead reagent dilution to working stock concentrations. Reference control and test compounds were diluted to obtain ten-point concentration response curves using a four-fold serial dilution protocol onto assay plates, dispensed acoustically from DMSO stock using automated ECHO instrument technology (Labcyte, Inc.). Concentration response curves were routinely generated with the highest final assay concentration for the reference angiotensin-II control at 50 nM, and the highest final assay concentration for the test compounds at 50 μM. […] The hAT2R membrane was combined with PVT-WGA SPA beads to obtain a final assay concentration of 0.25 μg/well hAT2R membrane+0.1 mg/well PVT-WGA SPA bead. And the hAT1R membrane PVT-WGA SPA bead final concentrations was 0.5 μg/well hAT1R membrane+0.1 mg/well PVT-WGA SPA bead. […] For all assays, radioligand addition was followed by the addition of membrane-SPA bead mixture, i.e., the hAT2R membrane-SPA bead mixture (30 μL), the rAT2R membrane-SPA bead mixture, or the AT1R membrane-SPA bead mixture (30 μL) into the assay plate. All dispensing steps were added using a Multiflo FX (Biotek, Inc.) bulk dispensing instrument. After reagent addition steps, assay plates were sealed, and plate contents mixed for one minute on a benchtop micro-plate shaker. Following a 10-hour incubation at room temperature to allow for bead settling and radioligand binding, bound radioactivity was quantitated using a Microbeta Trilux scintillation counter (Perkin Elmer) and expressed as counts per minute (CPM). The unlabeled angiotensin-II control was included on each plate as an experimental assay reference. […] Data Analysis Procedures Compounds were tested in a 10-point concentration response curve (CRC) format, with each plate containing the positive control angiotensin-II positive reference compound, and experimental compounds.

Sequence of recombinant human angiotensin-II receptor subtype 2 (hAT2R) (P50052 whole entry): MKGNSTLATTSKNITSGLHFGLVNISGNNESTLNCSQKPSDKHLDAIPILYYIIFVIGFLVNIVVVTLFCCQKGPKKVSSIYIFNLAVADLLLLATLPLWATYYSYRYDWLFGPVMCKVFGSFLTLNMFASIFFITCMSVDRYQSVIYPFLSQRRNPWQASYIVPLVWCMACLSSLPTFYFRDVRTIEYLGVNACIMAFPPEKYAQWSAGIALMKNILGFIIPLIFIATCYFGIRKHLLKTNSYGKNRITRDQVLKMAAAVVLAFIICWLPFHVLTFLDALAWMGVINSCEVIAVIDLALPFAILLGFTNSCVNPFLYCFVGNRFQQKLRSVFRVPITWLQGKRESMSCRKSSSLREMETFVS

In the case of `CC(C)c1ccc(N(C(=O)CC2(C(=O)O)CCN(C(=O)N(C)c3ccc(F)cc3)CC2)c2ccccc2)cc1` [compound 28, 1-[(4-fluorophenyl)-methyl-carbamoyl]-4-[2-(N-(4-isopropylphenyl)anilino)-2-oxo-ethyl]piperidine-4-carboxylic acid], the Ki is reported as 3.39 nM.

`O=C(N1CCC(CC(=O)N(c2ccc(F)cc2)c2ccccc2F)(C(=O)O)CC1)N1CCc2ccccc21` [Example 61, 4-[2-(4-fluoro-N-(2-fluorophenyl)anilino)-2-oxo-ethyl]-1-(indoline-1-carbonyl)piperidine-4-carboxylic acid] gave a Ki of 3.73 nM.

Molecule `O=C(CC1(C(=O)O)CCN(C(=O)N(c2ccc(F)cc2)C2CC2)CC1)N(c1ccccc1)c1ccccc1F` [Example 40, 1-[cyclopropyl-(4-fluorophenyl)carbamoyl]-4-[2-(N-(2-fluorophenyl)anilino)-2-oxo-ethyl]piperidine-4-carboxylic acid] has a Ki of 1.37 nM.

`O=C(CC1(C(=O)O)CCN(C(=O)N(c2ccc(F)cc2)C2CC2)CC1)N(c1ccccc1)C1CCCCC1` [Example 16, 4-[2-(N-cyclohexylanilino)-2-oxo-ethyl]-1-[cyclopropyl-(4-fluorophenyl)carbamoyl]piperidine-4-carboxylic acid] was tested, and the Ki was 1.76 nM.

In the case of `O=C(N1CCC(CC(=O)N(c2cccc(F)c2)c2ccccc2F)(C(=O)O)CC1)N1CCc2ccccc21` [Example 60, 4-[2-(3-fluoro-N-(2-fluorophenyl)anilino)-2-oxo-ethyl]-1-(indoline-1-carbonyl)piperidine-4-carboxylic acid], the Ki is reported as 3.18 nM.

Work on `COc1cccc(N(C(=O)CC2(C(=O)O)CCN(C(=O)N(C)c3ccc(F)cc3)CC2)c2ccccc2)c1` [compound 25, 1-[(4-fluorophenyl)-methyl-carbamoyl]-4-[2-(N-(3-methoxyphenyl)anilino)-2-oxo-ethyl]piperidine-4-carboxylic acid] yielded a Ki of 2.7 nM.

For `O=C(N1CCC(CC(=O)N(c2ccccc2)c2ccccc2F)(C(=O)O)CC1)N1CCc2ccccc21` [Example 56, 4-[2-(N-(2-fluorophenyl)anilino)-2-oxo-ethyl]-1-(indoline-1-carbonyl)piperidine-4-carboxylic acid], the Ki was 2.99 nM.

With `CN(C(=O)N1CCC(CC(=O)N(c2ccccc2)C2CCC(F)(F)CC2)(C(=O)O)CC1)c1ccc(F)cc1` [Example 8, 4-[2-(N-(4,4-difluorocyclohexyl)anilino)-2-oxo-ethyl]-1-[(4-fluorophenyl)-methyl-carbamoyl]piperidine-4-carboxylic acid] the Ki was 3.02 nM.

`CN(C(=O)N1CCC(CC(=O)N(c2ccccc2)c2ccc(Cl)cc2)(C(=O)O)CC1)c1ccc(F)cc1` [compound 31, -[2-(N-(4-chlorophenyl)anilino)-2-oxo-ethyl]-1-[(4-fluorophenyl)-methyl-carbamoyl]piperidine-4-carboxylic acid] showed a Ki of 1.89 nM.

In the case of `O=C(CC1(C(=O)O)CCN(c2ccccc2)CC1)N(c1ccccc1)C1CCCCC1` [Example 48, 4-[2-(N-cyclohexylanilino)-2-oxo-ethyl]-1-phenyl-piperidine-4-carboxylic acid], the Ki is reported as 3.59 nM.

With `Cc1ccc(N(C)C(=O)N2CCC(CC(=O)N(c3ccccc3)C3CCCCC3)(C(=O)O)CC2)cc1` [Example 13, 4-[2-(N-cyclohexylanilino)-2-oxo-ethyl]-1-[methyl(p-tolyl)carbamoyl]piperidine-4-carboxylic acid] the Ki was 1.44 nM.

`CC(C1CC1)N(C(=O)CC1(C(=O)O)CCN(C(=O)N(C)c2ccc(F)cc2)CC1)c1ccccc1` (single isomer, unassigned) [Example 43B, 4-[2-[N-(1-cyclopropylethyl)anilino]-2-oxo-ethyl]-1-[(4-fluorophenyl)-methyl-carbamoyl]piperidine-4-carboxylic acid] showed a Ki of 20.1 nM.

In the case of `CC(C(=O)N1CCC(CC(=O)N(c2ccccc2)C2CCCC(F)(F)C2)(C(=O)O)CC1)c1cccc(F)c1` (racemic) [Example 63, 4-[2-(N-(3,3-difluorocyclohexyl)anilino)-2-oxo-ethyl]-1-[2-(3-fluorophenyl)propanoyl]piperidine-4-carboxylic acid], the Ki is reported as 1.19 nM.

For `CC(C)(C)OC(=O)N1CCC(CC(=O)N(c2ccccc2)C2CCCC(F)(F)C2)(C(=O)O)CC1` (single isomer, unassigned) [compound 42], the Ki was 3.94 nM.

With `CC(C1CC1)N(C(=O)CC1(C(=O)O)CCN(C(=O)N(C)c2ccc(F)cc2)CC1)c1ccccc1` (racemic) [Example 43, 4-[2-[N-(1-cyclopropylethyl)anilino]-2-oxo-ethyl]-1-[(4-fluorophenyl)-methyl-carbamoyl]piperidine-4-carboxylic acid] the Ki was 2.93 nM.

In the case of `O=C(N1CCC(CC(=O)N(c2ccccc2)C2CCCC(F)(F)C2)(C(=O)O)CC1)N1CCc2c(F)cccc21` (racemic) [Example 71, 4-[2-(N-(3,3-difluorocyclohexyl)anilino)-2-oxo-ethyl]-1-(4-fluoroindoline-1-carbonyl)piperidine-4-carboxylic acid], the Ki is reported as 3.14 nM.

In the case of `COc1ccc(N(C)C(=O)N2CCC(CC(=O)N(c3ccccc3)C3CCCCC3)(C(=O)O)CC2)cc1` [Example 14, 4-[2-(N-cyclohexylanilino)-2-oxo-ethyl]-1-[(4-methoxyphenyl)-methyl-carbamoyl]piperidine-4-carboxylic acid], the Ki is reported as 2.58 nM.

Molecule `CN(C(=O)N1CCC(CC(=O)N(c2ccccc2)C2CCOCC2)(C(=O)O)CC1)c1ccc(C2CC2)cc1` [Example 26, 1-[(4-cyclopropylphenyl)-methyl-carbamoyl]-4-[2-oxo-2-(N-tetrahydropyran-4-ylanilino)ethyl]piperidine-4-carboxylic acid] has a Ki of 5.39 nM.

With `CN(C(=O)N1CCC(CC(=O)N(c2ccccc2)c2cccc(F)c2)(C(=O)O)CC1)c1ccc(F)cc1` [compound 24, 4-[2-(N-(3-fluorophenyl)anilino)-2-oxo-ethyl]-1-[(4-fluorophenyl)-methyl-carbamoyl]piperidine-4-carboxylic acid] the Ki was 0.774 nM.

Molecule `Cc1ccccc1N(C(=O)CC1(C(=O)O)CCN(C(=O)N(C)c2ccc(F)cc2)CC1)c1ccccc1` [Example 37, 1-[(4-fluorophenyl)-methyl-carbamoyl]-4-[2-[N-(o-tolyl)anilino]-2-oxo-ethyl]piperidine-4-carboxylic acid] has a Ki of 0.987 nM.

With `CC(C(=O)N1CCC(CC(=O)N(c2ccccc2)C2CCCC(F)(F)C2)(C(=O)O)CC1)c1ccc(F)cc1` (racemic) [Example 62, 4-[2-(N-(3,3-difluorocyclohexyl)anilino)-2-oxo-ethyl]-1-[2-(4-fluorophenyl)propanoyl]piperidine-4-carboxylic acid] the Ki was 1.04 nM.

`CN(C(=O)N1CCC(CC(=O)N(c2ccccc2)C2CCCOC2)(C(=O)O)CC1)c1ccc(F)cc1` (single isomer, unassigned) [Example 41B, 1-[(4-fluorophenyl)-methyl-carbamoyl]-4-[2-oxo-2-(N-tetrahydropyran-3-ylanilino)ethyl]piperidine-4-carboxylic acid] showed a Ki of 14.7 nM.

In the case of `O=C(N1CCC(CC(=O)N(c2ccccc2)C2CCCC(F)(F)C2)(C(=O)O)CC1)N1CCc2cccc(F)c21` (racemic) [Example 73, 4-[2-(N-(3,3-difluorocyclohexyl)anilino)-2-oxo-ethyl]-1-(7-fluoroindoline-1-carbonyl)piperidine-4-carboxylic acid], the Ki is reported as 3.03 nM.
